According to US20240009170A1, “INHIBITION OF GLYCOGEN SYNTHASE KINASE-3 (GSK-3)” (Brown University, priority 2020, published 2024):

What was measured:
SW480 tumor cells = assay: Co-culture of NK-92 natural killer cells and SW480 tumor cells; format: cell-based, Human
Experimental: (§1) Immune cell co-culture experiments. Co-culture experiments were conducted with GFP+ SW480 or HCT-116 colorectal cancer cells and either NK-92 natural killer cells or TALL-104 T cells in a 48-well plate, in the presence or absence of 9-ING-41. HCT-116 cells were labeled using CellTracker™ Green CMFDA (5-chloromethylfluorescein diacetate), immune cells (NK-92, TALL-104) were labeled using CellTracker™ Blue CMAC Dye (7-amino-4-chloromethylcoumarin), and ethidium homodimer-1 (EthD-1) was used as a marker of cell death (Invitrogen, Thermo Fisher Scientific, Waltham, MA, USA).
Co-culture experiments were conducted with GFP+ SW480 colorectal cancer cells and either NK-92 natural killer cells or TALL-104 T cells at various effector/target ratios in a 48-well plate, in the presence or absence of 9-ING-41.
The inventors co-cultured green fluorescent SW480 tumor cells with NK-92 natural killer cells at a 1:1 effector target cell ratio (E:T) for twenty-four hours and imaged by fluorescence microscopy. Ethidium homodimer was used to visualize dead cells. The inventors obtained photographic images of the co-cultured cells.
An average baseline amount of NK-92-mediated tumor cell killing of about 39% occurred in the absence of drug.

[1] = test system: HCT-116 colorectal cancer cells; assay: Co-culture of HCT-116 and TALL-104 cells with or without αPD-1 therapy; format: cell-based, Human; details: compared with the other culture conditions
Experimental: as §1
9-ING-41 increases tumor cell death in combination with αPD-1 therapy in a co-culture of HCT-116 colorectal cancer cells and immune cells. The inventors were interested in the applicability of GS3K-3 inhibitors such as 9-ING-41 in combination with immune checkpoint blockade. The inventors next performed co-cultures of immune cells (TALL-104, NK-92) and tumor cells (HCT-116) in the presence or absence of 9-ING-41, as well as either pembrolizumab® or nivolumab®, two humanized monoclonal antibodies against PD-1. The inventors evaluated HCT-116 cells in this co-culture model to determine if the 9-ING-41-mediated increase in immune cell-mediated SW480 cell killing could be reproduced in another colorectal cancer cell line.

TALL-104 cells = assay: Cytokine profile of immune cell culture supernatant, TALL-104; format: cell-based, Human; details: 1 μM, 48 hours
Experimental: Collection of cell culture supernatants used in cytokine measurements. Cells were plated at 3.5×10^4 cells in a 48-well plate (Thermo Fisher Scientific, Waltham, MA, USA) in complete medium and incubated at 37° C. with 5% CO2. At twenty-four hours after plating, almost all the tumor cells were adherent to the bottom of the flask and the complete medium was replaced with drug-containing medium. Subsequently, the culture supernatants were collected after forty-eight hours of incubation and were frozen at −80° C. until the measurement of cytokines was performed. The day of analysis, samples were thawed and centrifuged to remove cellular debris.
Human cytokine profiling. Human cell line culture supernatants were analyzed using an R&D systems Human Premixed Multi-Analyte Kit (R&D Systems, Inc., Minneapolis, MN, USA) and a Luminex 200 Instrument (LX200-XPON-RUO, Luminex Corporation, Austin, TX, USA) according to the manufacturer's instructions. […]
9-ING-41 increases secreted cytotoxic proteins IFN-v, Granzyme B, and TRAIL in immune cells. […] Here, the inventors determined how 9-ING-41 treatment impacts the immune cell cytokinome. […]

HT-29 = assay: Flow cytometric analysis of cell surface markers, HT-29; format: cell-based, Human; details: post-treatment, 48 hours
Experimental: (§2) FIG. 12 is a set of bar graphs showing flow cytometric analyses of cell surface markers of tumor and immune cells treated with 9-ING-41 in vitro. FIG. 12(A) HCT-116, FIG. 12(B) HT-29, FIG. 12(C) TALL-104, and FIG. 12(D) NK-92 cells were treated with indicated concentrations of 9-ING-41 for forty-eight hours, stained for indicated cell surface marker expression, and analyzed with a BD LSRII. Statistical significance was determined using two-tailed unpaired T tests.
(§3) To further understand the differential 9-ING-41-mediated impacts on protein expression, the inventors treated tumor and immune cells in vitro with 9-ING-41, then performed a flow cytometric analysis for expression of cell surface markers. […] A similar trend occurred in HT-29 cells, although not statistically significant. […] FIG. 10(C). […] FIG. 10(D).

NK-92 = assay: Flow cytometric analysis of cell surface markers, NK-92; format: cell-based, Human; details: 48 hours
Experimental: as §2, §3

TALL-104 = assay: Flow cytometric analysis of cell surface markers, TALL-104; format: cell-based, Human; details: compared to DMSO treatment alone
Experimental: as §2, §3

[2] = in vivo; cited from earlier work
GSK-3 = details: cited from earlier work

With `Cn1cc(C2=C(c3coc4ccc(F)cc34)C(=O)NC2=O)c2cc3c(cc21)OCO3` [9-ING-41] the “Natural Killer activity” value (SW480 tumor cells; IC50 dose, 1:1 E:T, 24 hours) was “stimulation of Natural Killer activity”, the “natural killer (NK-92) cell killing of colorectal cancer cells” value (SW480 tumor cells; compared to controls without drug treatment) was “significant increase” and the “cell death after twenty-four hours of co-culture with TALL-104” value [1] was “even greater amount of cell death”. For the same molecule, the “IFN-γ, granzyme B, and TRAIL concentrations” value (TALL-104 cells) was “increases”, the “HLA-E and PD-L1 surface expression” value (HT-29) was “statistically significant increase” and the “TRAIL and LAG3 surface expression” value (NK-92) was “increases”. For the same molecule, the “checkpoint molecule NKG2A surface expression” value (NK-92) was “statistically significant decreases”, the TRAIL expression (TALL-104) was “significant decreased” and the blood brain barrier [2] was “crosses the blood brain barrier”. For the same molecule, the GSK-3 isoforms inhibited (GSK-3) was “inhibits both α and β isoforms” and the “potency compared with other GSK-3 inhibitors” value (GSK-3) was “significantly more potent”.
